Source: the NIST ThermoML archive (doi:10.1016/j.fluid.2012.01.023)
± gives the expanded uncertainty stated by the source.

Columns and labels:
[1] = Liquid, Vibrating tube method
[2] = xn = mol fraction of the nth substance listed; conditions: Liquid; for viscosity: Electromagnetically Driven Piston; for mass density: Vibrating tube method

Compound: CCCCCCCCCCCCCC [tetradecane]
- mass density ([1]; 294.4 K, 5030 kPa): 764 ± 2 kg/m3
- mass density ([1]; 294.6 K, 8000 kPa): 766 ± 2 kg/m3
- mass density ([1]; 294.6 K, 9490 kPa): 767 ± 2 kg/m3
- mass density ([1]; 294.8 K, 2050 kPa): 760 ± 2 kg/m3
- mass density ([1]; 294.8 K, 3540 kPa): 762 ± 2 kg/m3
- mass density ([1]; 294.8 K, 6500 kPa): 765 ± 2 kg/m3
- mass density ([1]; 324 K, 3540 kPa): 743 ± 2 kg/m3
- mass density ([1]; 324 K, 5050 kPa): 744 ± 2 kg/m3
- mass density ([1]; 324 K, 6560 kPa): 746 ± 2 kg/m3
- mass density ([1]; 324.1 K, 2070 kPa): 742 ± 2 kg/m3
- mass density ([1]; 324.1 K, 8070 kPa): 747 ± 2 kg/m3
- mass density ([1]; 324.1 K, 9540 kPa): 748 ± 2 kg/m3
- mass density ([1]; 373.3 K, 5060 kPa): 711 ± 2 kg/m3
- mass density ([1]; 373.3 K, 6560 kPa): 712 ± 2 kg/m3
- mass density ([1]; 373.5 K, 2100 kPa): 708 ± 2 kg/m3
- mass density ([1]; 373.5 K, 3560 kPa): 709 ± 2 kg/m3
- mass density ([1]; 373.5 K, 8030 kPa): 713 ± 2 kg/m3
- mass density ([1]; 373.5 K, 9500 kPa): 715 ± 2 kg/m3
- mass density ([1]; 447.5 K, 4920 kPa): 660 ± 2 kg/m3
- mass density ([1]; 447.5 K, 6450 kPa): 662 ± 2 kg/m3
- mass density ([1]; 447.6 K, 1990 kPa): 655 ± 2 kg/m3
- mass density ([1]; 447.6 K, 3590 kPa): 658 ± 2 kg/m3
- mass density ([1]; 447.6 K, 7960 kPa): 665 ± 2 kg/m3
- mass density ([1]; 447.6 K, 9470 kPa): 667 ± 2 kg/m3

Compound: CCCCCCCCCCCCCC [tetradecane] + C
- viscosity ([2]; 294.4 K, x2 = 0.232): 1.48 ± 0.15 mPa·s
- mass density ([2]; 294.4 K, x2 = 0.232): 740 ± 2 kg/m3
- viscosity ([2]; 294.6 K, x2 = 0.331): 1.16 ± 0.12 mPa·s
- viscosity ([2]; 294.6 K, x2 = 0.364): 1.05 ± 0.11 mPa·s
- mass density ([2]; 294.6 K, x2 = 0.331): 728 ± 2 kg/m3
- mass density ([2]; 294.6 K, x2 = 0.364): 723 ± 2 kg/m3
- viscosity ([2]; 294.8 K, x2 = 0.112): 1.74 ± 0.18 mPa·s
- viscosity ([2]; 294.8 K, x2 = 0.176): 1.64 ± 0.17 mPa·s
- viscosity ([2]; 294.8 K, x2 = 0.282): 1.33 ± 0.14 mPa·s
- mass density ([2]; 294.8 K, x2 = 0.112): 752 ± 2 kg/m3
- mass density ([2]; 294.8 K, x2 = 0.176): 746 ± 2 kg/m3
- mass density ([2]; 294.8 K, x2 = 0.282): 734 ± 2 kg/m3
- viscosity ([2]; 324 K, x2 = 0.159): 0.97 ± 0.1 mPa·s
- viscosity ([2]; 324 K, x2 = 0.213): 0.91 ± 0.09 mPa·s
- viscosity ([2]; 324 K, x2 = 0.264): 0.82 ± 0.09 mPa·s
- mass density ([2]; 324 K, x2 = 0.159): 726 ± 2 kg/m3
- mass density ([2]; 324 K, x2 = 0.213): 722 ± 2 kg/m3
- mass density ([2]; 324 K, x2 = 0.264): 716 ± 2 kg/m3
- viscosity ([2]; 324.1 K, x2 = 0.1): 1.07 ± 0.11 mPa·s
- viscosity ([2]; 324.1 K, x2 = 0.306): 0.75 ± 0.08 mPa·s
- viscosity ([2]; 324.1 K, x2 = 0.342): 0.7 ± 0.07 mPa·s
- mass density ([2]; 324.1 K, x2 = 0.1): 732 ± 2 kg/m3
- mass density ([2]; 324.1 K, x2 = 0.306): 711 ± 2 kg/m3
- mass density ([2]; 324.1 K, x2 = 0.342): 706 ± 2 kg/m3
- viscosity ([2]; 373.3 K, x2 = 0.193): 0.51 ± 0.05 mPa·s
- viscosity ([2]; 373.3 K, x2 = 0.239): 0.49 ± 0.05 mPa·s
- mass density ([2]; 373.3 K, x2 = 0.193): 689 ± 2 kg/m3
- mass density ([2]; 373.3 K, x2 = 0.239): 683 ± 2 kg/m3
- viscosity ([2]; 373.5 K, x2 = 0.09): 0.57 ± 0.06 mPa·s
- viscosity ([2]; 373.5 K, x2 = 0.143): 0.54 ± 0.06 mPa·s
- viscosity ([2]; 373.5 K, x2 = 0.279): 0.46 ± 0.05 mPa·s
- viscosity ([2]; 373.5 K, x2 = 0.317): 0.44 ± 0.05 mPa·s
- mass density ([2]; 373.5 K, x2 = 0.09): 699 ± 2 kg/m3
- mass density ([2]; 373.5 K, x2 = 0.143): 694 ± 2 kg/m3
- mass density ([2]; 373.5 K, x2 = 0.279): 678 ± 2 kg/m3
- mass density ([2]; 373.5 K, x2 = 0.317): 674 ± 2 kg/m3
- viscosity ([2]; 447.5 K, x2 = 0.176): 0.28 ± 0.03 mPa·s
- viscosity ([2]; 447.5 K, x2 = 0.223): 0.27 ± 0.03 mPa·s
- mass density ([2]; 447.5 K, x2 = 0.176): 636 ± 2 kg/m3
- mass density ([2]; 447.5 K, x2 = 0.223): 631 ± 2 kg/m3
- viscosity ([2]; 447.6 K, x2 = 0.078): 0.31 ± 0.03 mPa·s
- viscosity ([2]; 447.6 K, x2 = 0.137): 0.29 ± 0.03 mPa·s
- viscosity ([2]; 447.6 K, x2 = 0.266): 0.25 ± 0.03 mPa·s
- viscosity ([2]; 447.6 K, x2 = 0.303): 0.24 ± 0.03 mPa·s
- mass density ([2]; 447.6 K, x2 = 0.078): 646 ± 2 kg/m3
- mass density ([2]; 447.6 K, x2 = 0.137): 640 ± 2 kg/m3
- mass density ([2]; 447.6 K, x2 = 0.266): 625 ± 2 kg/m3
- mass density ([2]; 447.6 K, x2 = 0.303): 620 ± 2 kg/m3
